The compounds below were run against NS3 (Hepatitis C virus, UniProt A3EZJ3) (assay: Binding affinity against Hepatitis C virus NS3 protease).
Parameters: species or system Hepacivirus hominis

Chain of NS3 (A3EZJ3 whole entry): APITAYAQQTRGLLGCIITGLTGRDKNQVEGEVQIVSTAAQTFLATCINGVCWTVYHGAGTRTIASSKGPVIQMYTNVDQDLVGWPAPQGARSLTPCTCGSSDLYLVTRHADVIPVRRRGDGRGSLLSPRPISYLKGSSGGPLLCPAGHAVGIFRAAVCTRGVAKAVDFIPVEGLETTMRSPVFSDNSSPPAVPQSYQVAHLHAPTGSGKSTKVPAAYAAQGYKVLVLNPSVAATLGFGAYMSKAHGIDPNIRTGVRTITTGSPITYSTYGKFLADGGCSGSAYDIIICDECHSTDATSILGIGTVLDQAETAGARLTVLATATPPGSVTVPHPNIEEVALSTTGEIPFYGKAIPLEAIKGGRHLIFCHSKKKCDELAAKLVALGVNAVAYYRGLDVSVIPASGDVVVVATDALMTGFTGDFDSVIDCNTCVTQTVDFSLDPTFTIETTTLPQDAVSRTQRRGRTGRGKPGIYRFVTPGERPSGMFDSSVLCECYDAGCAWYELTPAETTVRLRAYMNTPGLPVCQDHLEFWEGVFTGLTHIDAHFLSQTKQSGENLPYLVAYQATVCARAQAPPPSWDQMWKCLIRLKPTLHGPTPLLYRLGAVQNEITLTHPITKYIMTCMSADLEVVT

First: CCCN(NC(=O)[C@H]1CCCN1C(=O)[C@@H](NC(=O)[C@@H](NC(=O)[C@H](CC(=O)O)NC(=O)[C@H](CCC(=O)O)NC(=O)[C@@H](NC(=O)[C@@H](N)CC(=O)O)[C@@H](C)O)C(C)C)C(C)C)C(=O)N[C@@H](CO)C(=O)N[C@@H](CCSC)C(=O)N[C@@H](CO)C(=O)N[C@@H](Cc1ccc(O)cc1)C(=O)N[C@H](C(=O)N[C@@H](Cc1c[nH]c2ccccc12)C(=O)N[C@H](C(=O)NCC(=O)N[C@@H](CCCCN)C(=O)O)[C@@H](C)O)[C@@H](C)O
Second: CCCN(NC(=O)[C@H]1CCCN1C(=O)[C@@H](NC(=O)[C@@H](NC(=O)[C@H](CC(=O)O)NC(=O)[C@H](CCC(=O)O)NC(=O)[C@@H](NC(=O)[C@H](CC(=O)O)NC(C)=O)[C@@H](C)O)C(C)C)C(C)C)C(=O)N[C@@H](CO)C(=O)N[C@@H](CCSC)C(=O)N[C@@H](CO)C(=O)N[C@@H](Cc1ccc(O)cc1)C(=O)N[C@H](C(=O)N[C@@H](Cc1c[nH]c2ccccc12)C(=O)N[C@H](C(=O)NCC(=O)N[C@@H](CCCCN)C(=O)O)[C@@H](C)O)[C@@H](C)O
The Ki of the first is 2-fold higher: 20 µM for the first, 10 µM for the second.

`CCCN(NC(=O)[C@H]1CCCN1C(=O)[C@@H](NC(=O)[C@@H](NC(=O)[C@H](CC(=O)O)NC(=O)[C@H](CCC(=O)O)NC(=O)[C@@H](NC(=O)[C@H](CC(=O)O)NC(C)=O)[C@@H](C)O)C(C)C)C(C)C)C(=O)N[C@@H](CO)C(=O)N[C@@H](CCSC)C(=O)N[C@@H](CO)C(=O)O` and `CCCN(NC(=O)[C@H]1CCCN1C(=O)[C@@H](NC(=O)[C@@H](NC(=O)[C@H](CC(=O)O)NC(=O)[C@H](CCC(=O)O)NC(C)=O)C(C)C)C(C)C)C(=O)N[C@@H](CO)C(=O)N[C@@H](CCSC)C(=O)N[C@@H](CO)C(N)=O` are the same in Ki: 200 µM for the first, 200 µM for the second.

`CCCN(NC(=O)[C@H]1CCCN1C(=O)[C@@H](NC(=O)[C@@H](NC(=O)[C@H](CC(=O)O)NC(=O)[C@H](CCC(=O)O)NC(=O)[C@@H](NC(=O)[C@H](CC(=O)O)NC(C)=O)[C@@H](C)O)C(C)C)C(C)C)C(=O)c1ccc([N+](=O)[O-])cc1` and `CCCN(NC(=O)[C@H]1CCCN1C(=O)[C@@H](NC(=O)[C@@H](NC(=O)[C@H](CC(=O)O)NC(=O)[C@H](CCC(=O)O)NC(=O)[C@@H](NC(=O)[C@H](CC(=O)O)NC(C)=O)[C@@H](C)O)C(C)C)C(C)C)C(=O)c1ccc(C#N)cc1` cannot be ordered by Ki: > 100 µM for the first, > 100 µM for the second.

`CCCN(NC(=O)[C@H]1CCCN1C(=O)[C@@H](NC(=O)[C@@H](NC(=O)[C@H](CC(=O)O)NC(=O)[C@H](CCC(=O)O)NC(=O)[C@@H](NC(=O)[C@H](CC(=O)O)NC(C)=O)[C@@H](C)O)C(C)C)C(C)C)C(=O)C(F)(F)F` and `CCCN(NC(=O)[C@H]1CCCN1C(=O)[C@@H](NC(=O)[C@@H](NC(=O)[C@H](CC(=O)O)NC(=O)[C@H](CCC(=O)O)NC(=O)[C@@H](NC(=O)[C@H](CC(=O)O)NC(C)=O)[C@@H](C)O)C(C)C)C(C)C)C(C)=O` cannot be ordered by Ki: > 100 µM for the first, > 100 µM for the second.

`CCCN(NC(=O)[C@H]1CCCN1C(=O)[C@@H](NC(=O)[C@@H](NC(=O)[C@H](CC(=O)O)NC(=O)[C@H](CCC(=O)O)NC(=O)[C@@H](NC(=O)[C@H](CC(=O)O)NC(C)=O)[C@@H](C)O)C(C)C)C(C)C)C(=O)C(=O)OCC` and `CCCN(NC(=O)[C@H]1CCCN1C(=O)[C@@H](NC(=O)[C@@H](NC(=O)[C@H](CC(=O)O)NC(=O)[C@H](CCC(=O)O)NC(=O)[C@@H](NC(=O)[C@H](CC(=O)O)NC(C)=O)[C@@H](C)O)C(C)C)C(C)C)C(=O)CC` cannot be ordered by Ki: > 100 µM for the first, > 100 µM for the second.

Compared with `CCCN(NC(=O)[C@H]1CCCN1C(=O)[C@@H](NC(=O)[C@@H](NC(=O)[C@H](CC(=O)O)NC(=O)[C@H](CCC(=O)O)NC(C)=O)C(C)C)C(C)C)C(=O)N[C@@H](CO)C(=O)N[C@@H](CCSC)C(=O)N[C@@H](CO)C(=O)N[C@@H](Cc1ccc(O)cc1)C(=O)N[C@H](C(=O)N[C@@H](Cc1c[nH]c2ccccc12)C(=O)N[C@H](C(=O)NCC(=O)N[C@@H](CCCCN)C(=O)O)[C@@H](C)O)[C@@H](C)O`, `CSCC[C@H](NC(=O)[C@H](CO)NC(=O)NNC(=O)[C@H]1CCCN1C(=O)[C@@H](NC(=O)[C@@H](NC(=O)[C@H](CC(=O)O)NC(=O)[C@H](CCC(=O)O)NC(=O)[C@@H](NC(=O)[C@H](CC(=O)O)NC(C)=O)[C@@H](C)O)C(C)C)C(C)C)C(=O)N[C@@H](CO)C(=O)N[C@@H](Cc1ccc(O)cc1)C(=O)N[C@H](C(=O)N[C@@H](Cc1c[nH]c2ccccc12)C(=O)N[C@H](C(=O)NCC(=O)N[C@@H](CCCCN)C(=O)O)[C@@H](C)O)[C@@H](C)O` is higher in Ki: 20 µM for the first, > 200 µM for the second. The first binds more tightly here.

Compared with `CCCN(NC(=O)[C@H]1CCCN1C(=O)[C@@H](NC(=O)[C@@H](NC(=O)[C@H](CC(=O)O)NC(=O)[C@H](CCC(=O)O)NC(=O)[C@@H](NC(=O)[C@H](CC(=O)O)NC(C)=O)[C@@H](C)O)C(C)C)C(C)C)C(=O)c1cc([N+](=O)[O-])cc([N+](=O)[O-])c1`, `CCCN(NC(=O)[C@H]1CCCN1C(=O)[C@@H](NC(=O)[C@@H](NC(=O)[C@H](CC(=O)O)NC(=O)[C@H](CCC(=O)O)NC(=O)[C@@H](NC(=O)[C@H](CC(=O)O)NC(C)=O)[C@@H](C)O)C(C)C)C(C)C)C(=O)Oc1ccccc1[N+](=O)[O-]` is lower in Ki: > 100 µM for the first, 9 µM for the second. The second binds more tightly here.

`CCCN(NC(=O)[C@H]1CCCN1C(=O)[C@@H](NC(=O)[C@@H](NC(=O)[C@H](CC(=O)O)NC(=O)[C@H](CCC(=O)O)NC(=O)[C@@H](NC(=O)[C@H](CC(=O)O)NC(C)=O)[C@@H](C)O)C(C)C)C(C)C)C(=O)CBr` and `CCCN(NC(=O)[C@H]1CCCN1C(=O)[C@@H](NC(=O)[C@@H](NC(=O)[C@H](CC(=O)O)NC(=O)[C@H](CCC(=O)O)NC(=O)[C@@H](NC(=O)[C@H](CC(=O)O)NC(C)=O)[C@@H](C)O)C(C)C)C(C)C)C(=O)CCl` cannot be ordered by Ki: > 100 µM for the first, > 100 µM for the second.

First: CCCN(NC(=O)[C@H]1CCCN1C(=O)[C@@H](NC(=O)[C@@H](NC(C)=O)C(C)C)C(C)C)C(=O)Oc1ccc([N+](=O)[O-])cc1
Second: CCCN(NC(=O)[C@H]1CCCN1C(=O)[C@@H](NC(=O)[C@@H](NC(=O)[C@H](CC(=O)O)NC(C)=O)C(C)C)C(C)C)C(=O)Oc1ccc([N+](=O)[O-])cc1
The Ki of the first is 14-fold higher: 100 µM for the first, 7 µM for the second. The second binds more tightly here.

`CCCN(NC(=O)[C@H]1CCCN1C(=O)[C@@H](NC(=O)[C@@H](NC(=O)[C@H](CC(=O)O)NC(=O)[C@H](CCC(=O)O)NC(=O)[C@@H](NC(=O)[C@H](CC(=O)O)NC(C)=O)[C@@H](C)O)C(C)C)C(C)C)S(=O)(=O)CCl` and `CCCCC(=O)N(CCC)NC(=O)[C@H]1CCCN1C(=O)[C@@H](NC(=O)[C@@H](NC(=O)[C@H](CC(=O)O)NC(=O)[C@H](CCC(=O)O)NC(=O)[C@@H](NC(=O)[C@H](CC(=O)O)NC(C)=O)[C@@H](C)O)C(C)C)C(C)C` cannot be ordered by Ki: > 100 µM for the first, > 100 µM for the second.

Going from `CCCN(NC(=O)[C@H]1CCCN1C(=O)[C@@H](NC(=O)[C@@H](NC(=O)[C@H](CC(=O)O)NC(=O)[C@H](CCC(=O)O)NC(=O)[C@@H](NC(=O)[C@H](CC(=O)O)NC(C)=O)[C@@H](C)O)C(C)C)C(C)C)C(=O)Oc1ccccc1` to `CCCN(NC(=O)[C@H]1CCCN1C(=O)[C@@H](NC(=O)[C@@H](NC(=O)[C@H](CC(=O)O)NC(=O)[C@H](CCC(=O)O)NC(=O)[C@@H](NC(=O)[C@H](CC(=O)O)NC(C)=O)[C@@H](C)O)C(C)C)C(C)C)C(=O)OCc1ccccc1`, the Ki rises from 8 µM to 80 µM (10-fold). The first binds more tightly here.

`CCCN(NC(=O)[C@H]1CCCN1C(=O)[C@@H](NC(=O)[C@@H](NC(=O)[C@H](CC(=O)O)NC(=O)[C@H](CCC(=O)O)NC(=O)[C@@H](NC(=O)[C@H](CC(=O)O)NC(C)=O)[C@@H](C)O)C(C)C)C(C)C)C(=O)c1ccc(-c2ccccc2)cc1` and `CCCN(NC(=O)[C@H]1CCCN1C(=O)[C@@H](NC(=O)[C@@H](NC(=O)[C@H](CC(=O)O)NC(=O)[C@H](CCC(=O)O)NC(=O)[C@@H](NC(=O)[C@H](CC(=O)O)NC(C)=O)[C@@H](C)O)C(C)C)C(C)C)C(=O)c1ccc(C(F)(F)F)cc1` cannot be ordered by Ki: > 100 µM for the first, > 100 µM for the second.

First: CCN(NC(=O)[C@H]1CCCN1C(=O)[C@@H](NC(=O)[C@@H](NC(=O)[C@H](CC(=O)O)NC(=O)[C@H](CCC(=O)O)NC(=O)[C@@H](NC(=O)[C@H](CC(=O)O)NC(C)=O)[C@@H](C)O)C(C)C)C(C)C)C(=O)Oc1ccc([N+](=O)[O-])cc1
Second: CCCN(NC(=O)[C@H]1CCCN1C(=O)[C@@H](NC(=O)[C@@H](NC(=O)[C@H](CC(=O)O)NC(=O)[C@H](CCC(=O)O)NC(=O)[C@@H](NC(=O)[C@H](CC(=O)O)NC(C)=O)[C@@H](C)O)C(C)C)C(C)C)C(=O)Oc1ccc(Cl)cc1
The Ki of the first is higher: > 100 µM for the first, 16 µM for the second.

First: CCCN(NC(=O)[C@H]1CCCN1C(=O)[C@@H](NC(=O)[C@@H](NC(=O)[C@H](CC(=O)O)NC(=O)[C@H](CCC(=O)O)NC(=O)[C@@H](NC(=O)[C@H](CC(=O)O)NC(C)=O)[C@@H](C)O)C(C)C)C(C)C)C(=O)Sc1ccc(Cl)cc1
Second: CCCN(NC(=O)[C@H]1CCCN1C(=O)[C@@H](NC(=O)[C@@H](NC(=O)[C@H](CC(=O)O)NC(=O)[C@H](CCC(=O)O)NC(=O)[C@@H](NC(=O)[C@H](CC(=O)O)NC(C)=O)[C@@H](C)O)C(C)C)C(C)C)C(=O)OCC(Cl)(Cl)Cl
The Ki of the first is 7.1-fold higher: 100 µM for the first, 14 µM for the second.

Going from `CCCN(NC(=O)[C@H]1CCCN1C(=O)[C@@H](NC(=O)[C@@H](NC(=O)[C@H](CC(=O)O)NC(=O)[C@H](CCC(=O)O)NC(=O)[C@@H](NC(=O)[C@H](CC(=O)O)NC(C)=O)[C@@H](C)O)C(C)C)C(C)C)C(=O)OC(C)(C)C(Cl)(Cl)Cl` to `CCN(NC(=O)[C@H]1CCCN1C(=O)[C@@H](NC(=O)[C@@H](NC(=O)[C@H](CC(=O)O)NC(=O)[C@H](CCC(=O)O)NC(=O)[C@@H](NC(=O)[C@H](CC(=O)O)NC(C)=O)[C@@H](C)O)C(C)C)C(C)C)C(=O)OC(Cl)C(Cl)(Cl)Cl` (some centres undefined), the Ki falls from > 100 µM to 0.9 µM.

`CCCN(NC(=O)[C@H]1CCCN1C(=O)[C@@H](NC(=O)[C@@H](NC(=O)[C@H](CC(=O)O)NC(=O)[C@H](CCC(=O)O)NC(=O)[C@@H](NC(=O)[C@H](CC(=O)O)NC(C)=O)[C@@H](C)O)C(C)C)C(C)C)C(=O)c1c(F)c(F)c(F)c(F)c1F` and `CCCN(NC(=O)[C@H]1CCCN1C(=O)[C@@H](NC(=O)[C@@H](NC(=O)[C@H](CC(=O)O)NC(=O)[C@H](CCC(=O)O)NC(=O)[C@@H](NC(=O)[C@H](CC(=O)O)NC(C)=O)[C@@H](C)O)C(C)C)C(C)C)C(=O)c1cc(C(F)(F)F)cc(C(F)(F)F)c1` cannot be ordered by Ki: > 100 µM for the first, > 100 µM for the second.

First: CCCN(NC(=O)[C@H]1CCCN1C(=O)[C@@H](NC(=O)[C@@H](NC(=O)[C@H](CC(=O)O)NC(=O)[C@H](CCC(=O)O)NC(=O)[C@@H](NC(=O)[C@H](CC(=O)O)NC(C)=O)[C@@H](C)O)C(C)C)C(C)C)C(=O)c1ccc(/N=N\c2ccc([N+](=O)[O-])cc2)cc1
Second: CCCN(NC(=O)[C@H]1CCCN1C(=O)[C@@H](NC(=O)[C@@H](NC(=O)[C@H](CC(=O)O)NC(=O)[C@H](CCC(=O)O)NC(C)=O)C(C)C)C(C)C)C(=O)Oc1ccc([N+](=O)[O-])cc1
The Ki of the first is higher: > 100 µM for the first, 6 µM for the second.

— ChEMBL document CHEMBL1135259, “Azapeptides as inhibitors of the hepatitis C virus NS3 serine protease” (Bioorg Med Chem Lett, 2002)
